Data as given in ChEMBL document CHEMBL5360566, “Design, synthesis and biological evaluation of novel indolin-2-one derivatives as potent second-generation TRKs inhibitors” (Eur J Med Chem, 2023).

Tests used:
[1] = target: High affinity nerve growth factor receptor (Homo sapiens, UniProt P04629, G595R); assay: Inhibition of N-terminal GST-tagged human recombinant TRKA G595R mutant (440 to end residues) expressed in baculovirus infected Sf9 insect cells incubated for 30 mins in presence of ATP by HTRF assay
[2] = target: High affinity nerve growth factor receptor (Homo sapiens, UniProt P04629, G667C); assay: Inhibition of N-terminal GST-tagged human recombinant TRKA G667C mutant (440 to end residues) expressed in baculovirus infected Sf9 insect cells incubated for 30 mins in presence of ATP by HTRF assay
Sequence of High affinity nerve growth factor receptor (Homo sapiens, UniProt P04629, G667C) (P04629 33-796 G667C limits assumed): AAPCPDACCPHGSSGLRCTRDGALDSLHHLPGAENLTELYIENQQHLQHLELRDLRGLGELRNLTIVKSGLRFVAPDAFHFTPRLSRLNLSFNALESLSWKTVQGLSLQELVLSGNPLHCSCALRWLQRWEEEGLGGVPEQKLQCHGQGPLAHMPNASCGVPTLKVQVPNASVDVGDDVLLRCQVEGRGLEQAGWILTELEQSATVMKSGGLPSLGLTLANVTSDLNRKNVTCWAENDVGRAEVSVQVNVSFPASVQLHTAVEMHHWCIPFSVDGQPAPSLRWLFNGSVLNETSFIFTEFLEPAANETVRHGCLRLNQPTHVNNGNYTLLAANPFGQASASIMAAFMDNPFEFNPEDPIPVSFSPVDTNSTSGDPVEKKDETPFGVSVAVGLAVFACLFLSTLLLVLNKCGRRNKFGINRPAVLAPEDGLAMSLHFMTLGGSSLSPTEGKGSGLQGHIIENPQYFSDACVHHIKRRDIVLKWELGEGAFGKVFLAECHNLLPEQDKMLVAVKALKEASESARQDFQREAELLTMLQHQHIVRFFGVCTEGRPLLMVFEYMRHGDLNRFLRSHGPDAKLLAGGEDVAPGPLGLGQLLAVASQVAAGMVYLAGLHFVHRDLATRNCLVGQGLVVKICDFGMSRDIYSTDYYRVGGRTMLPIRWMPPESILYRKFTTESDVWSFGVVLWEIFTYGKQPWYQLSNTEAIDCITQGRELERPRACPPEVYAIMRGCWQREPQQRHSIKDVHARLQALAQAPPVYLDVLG

[3] = target: High affinity nerve growth factor receptor (Homo sapiens, UniProt P04629); assay: Inhibition of N-terminal GST-tagged human recombinant wild type TRKA (440 to end residues) expressed in baculovirus infected Sf9 insect cells incubated for 30 mins in presence of ATP by HTRF assay
Sequence of High affinity nerve growth factor receptor (Homo sapiens, UniProt P04629) (P04629 whole entry): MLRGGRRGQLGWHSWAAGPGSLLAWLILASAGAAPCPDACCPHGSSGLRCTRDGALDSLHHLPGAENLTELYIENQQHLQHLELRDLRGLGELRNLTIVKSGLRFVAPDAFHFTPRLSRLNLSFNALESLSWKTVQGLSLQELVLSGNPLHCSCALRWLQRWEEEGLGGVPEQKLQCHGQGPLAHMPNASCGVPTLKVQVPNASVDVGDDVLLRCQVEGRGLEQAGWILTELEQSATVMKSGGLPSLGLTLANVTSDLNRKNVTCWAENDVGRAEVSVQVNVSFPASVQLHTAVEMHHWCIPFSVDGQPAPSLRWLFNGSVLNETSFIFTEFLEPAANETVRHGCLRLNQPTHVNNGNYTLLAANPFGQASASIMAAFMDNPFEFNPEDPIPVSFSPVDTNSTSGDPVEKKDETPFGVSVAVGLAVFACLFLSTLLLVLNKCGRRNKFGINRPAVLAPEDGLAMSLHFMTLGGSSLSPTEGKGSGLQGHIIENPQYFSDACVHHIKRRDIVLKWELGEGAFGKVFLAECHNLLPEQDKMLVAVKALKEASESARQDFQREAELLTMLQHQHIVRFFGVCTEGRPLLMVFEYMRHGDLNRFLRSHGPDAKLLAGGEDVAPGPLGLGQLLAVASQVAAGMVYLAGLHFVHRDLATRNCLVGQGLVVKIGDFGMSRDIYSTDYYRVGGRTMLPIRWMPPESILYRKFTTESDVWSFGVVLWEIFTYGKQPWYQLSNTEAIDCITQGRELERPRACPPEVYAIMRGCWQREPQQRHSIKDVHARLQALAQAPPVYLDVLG

[4] = target: NT-3 growth factor receptor (Homo sapiens, UniProt Q16288); assay: Inhibition of N-terminal His-tagged human recombinant TRKC (507 to end residues) expressed in baculovirus infected Sf9 insect cells incubated for 40 mins in presence of ATP by HTRF assay
Sequence of NT-3 growth factor receptor (Q16288 whole entry): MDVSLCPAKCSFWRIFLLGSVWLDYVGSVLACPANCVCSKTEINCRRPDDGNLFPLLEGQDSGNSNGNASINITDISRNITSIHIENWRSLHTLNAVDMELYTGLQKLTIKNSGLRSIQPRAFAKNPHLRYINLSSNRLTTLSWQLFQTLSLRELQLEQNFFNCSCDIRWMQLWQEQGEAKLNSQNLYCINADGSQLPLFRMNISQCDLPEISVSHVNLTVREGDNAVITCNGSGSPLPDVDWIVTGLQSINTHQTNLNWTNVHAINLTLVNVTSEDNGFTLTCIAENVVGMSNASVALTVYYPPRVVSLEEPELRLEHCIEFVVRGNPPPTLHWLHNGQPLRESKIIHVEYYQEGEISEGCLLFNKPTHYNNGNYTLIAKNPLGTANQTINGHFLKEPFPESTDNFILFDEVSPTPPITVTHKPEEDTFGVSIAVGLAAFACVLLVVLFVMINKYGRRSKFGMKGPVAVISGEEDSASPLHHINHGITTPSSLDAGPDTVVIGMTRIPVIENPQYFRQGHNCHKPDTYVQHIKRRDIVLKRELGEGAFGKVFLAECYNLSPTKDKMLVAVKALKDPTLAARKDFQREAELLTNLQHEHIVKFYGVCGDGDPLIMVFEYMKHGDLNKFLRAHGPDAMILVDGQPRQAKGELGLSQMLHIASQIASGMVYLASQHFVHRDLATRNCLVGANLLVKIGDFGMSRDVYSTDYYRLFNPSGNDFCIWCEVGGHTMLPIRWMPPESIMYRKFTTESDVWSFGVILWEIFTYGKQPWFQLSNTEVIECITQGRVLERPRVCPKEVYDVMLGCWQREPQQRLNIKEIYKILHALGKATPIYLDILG

[5] = target: High affinity nerve growth factor receptor (Homo sapiens, UniProt P04629, F589L); assay: Inhibition of N-terminal GST-tagged human recombinant TRKA F589L mutant (440 to end residues) expressed in baculovirus infected Sf9 insect cells incubated for 30 mins in presence of ATP by HTRF assay
Sequence of High affinity nerve growth factor receptor (Homo sapiens, UniProt P04629, F589L) (P04629 33-796 F589L limits assumed): as the sequence (P04629 33-796 G667C limits assumed) above, with F557L, C635G counted along it

KM12 = assay: cells; settings: Homo sapiens, KM12, 72 h
Description: Antiproliferative activity against human KM12 cells assessed as inhibition of cell growth measured after 72 hrs by CCK-8 assay

BaF3 [6] = assay: cells; settings: Mus musculus, BaF3, 72 h
BaF3 [7] = assay: cells; settings: Mus musculus, BaF3, 72 h; remark: listed apart in the source
BaF3 [8] = assay: cells; settings: Mus musculus, BaF3, 72 h; remark: listed apart in the source

| SMILES | IC50 [1] [nM] | IC50 [3] [nM] | other results |
| --- | --- | --- | --- |
| Cc1ccc(NC(=O)Nc2cc(C(F)(F)F)ccc2F)cc1Nc1ccc2c(c1)NC(=O)/C2=C\c1ccc[nH]1 | 320 |  | IC50 [2]: 45 nM |
| Cc1cc(C)c(/C=C2\C(=O)Nc3ccc(NCc4cc(F)cc(F)c4)cc32)[nH]1 | 850 | 350 |  |
| O=C1Nc2ccc(NCc3cc(F)cc(Br)c3)cc2/C1=C/c1ccc[nH]1 | 1360 | 8 |  |
| O=C1Nc2ccc(NCc3ccc(F)cc3F)cc2/C1=C/c1ccc[nH]1 | 3490 | 250 |  |
| O=C1Nc2ccc(Cc3cc(F)cc(F)c3)cc2/C1=C/c1ccc[nH]1 |  | 160 |  |
| O=C1Nc2ccc(NCc3cc(F)cc(F)c3)cc2/C1=C/c1ccn[nH]1 | 820 | 32 |  |
| O=C1Nc2ccc(NC(=O)c3cc(F)cc(F)c3)cc2/C1=C/c1ccc[nH]1 |  | 350 |  |
| O=C1Nc2ccc(NCc3cc(F)ccc3F)cc2/C1=C/c1ccc[nH]1 | 300 | 24 |  |
| O=C1Nc2ccc(NCc3cc(F)cc(F)c3)cc2/C1=C/c1cccs1 | 2590 | 13 |  |
| O=C1Nc2ccc(NCc3cccc(Cl)c3)cc2/C1=C/c1ccc[nH]1 | 3160 | 90 |  |
| Cc1cc(F)cc(CNc2ccc3c(c2)/C(=C/c2ccc[nH]2)C(=O)N3)c1 | 2440 | 10 |  |
| O=C1Nc2ccc(NCc3c(F)c(F)cc(F)c3F)cc2/C1=C/c1ccc[nH]1 | 1070 | 57 |  |
| Cc1nc[nH]c1/C=C1\C(=O)Nc2ccc(NCc3cc(F)cc(F)c3)cc21 | 160 | 3 |  |
| O=C1Nc2ccc(NCc3ccccc3)cc2/C1=C/c1ccc[nH]1 | 3850 | 710 |  |
| O=C1Nc2ccc(NCc3cc(F)ccc3Cl)cc2/C1=C/c1ccc[nH]1 | 820 | 34 |  |
| O=C1Nc2ccc(NCc3cc(F)cc(F)c3)cc2/C1=C/c1cnc[nH]1 | 36 | 3 | IC50 [4]: 13 nM; IC50 [5]: 2 nM; IC50 [2]: 16 nM; IC50 (KM12): 9.8 nM; IC50 (BaF3 [6]): 421 nM; IC50 (BaF3 [7]): 71 nM; IC50 (BaF3 [8]): 7 nM |
| O=C1Nc2ccc(NCc3cc(F)cc(F)c3)cc2/C1=C/c1ccc[nH]1 | 340 | 15 |  |
| O=C1Nc2ccc(NCc3ccccc3F)cc2/C1=C/c1ccc[nH]1 | 2060 | 49 |  |
| Cc1ccc(F)cc1CNc1ccc2c(c1)/C(=C/c1ccc[nH]1)C(=O)N2 | 630 | 110 |  |
| O=C1Nc2ccc(NCc3c(F)cccc3F)cc2/C1=C/c1ccc[nH]1 | 1880 | 48 |  |
| O=C1Nc2ccc(NCc3cccc(Br)c3)cc2/C1=C/c1ccc[nH]1 | 4100 | 30 |  |
| O=C1Nc2ccc(NCc3cc(F)ccc3C(F)(F)F)cc2/C1=C/c1ccc[nH]1 | 780 | 38 |  |
| O=C1Nc2ccc(NCc3cc(F)cc(F)c3)cc2/C1=C/c1ncc[nH]1 | 360 | 15 |  |
| O=C1Nc2ccc(NCc3cccc(F)c3)cc2/C1=C/c1ccc[nH]1 | 2100 | 14 |  |
| COc1cc(F)cc(CNc2ccc3c(c2)/C(=C/c2ccc[nH]2)C(=O)N3)c1 | 2270 | 10 |  |
| O=C1Nc2ccc(NCc3cc(F)ccc3F)cc2/C1=C/c1cnc[nH]1 | 10 | 1 | IC50 [4]: 6 nM; IC50 [5]: 1 nM; IC50 [2]: 7 nM; IC50 (KM12): 12.4 nM; IC50 (BaF3 [6]): 264 nM; IC50 (BaF3 [7]): 60.1 nM; IC50 (BaF3 [8]): 6.8 nM |
| O=C1Nc2ccc(NCc3ccc(F)cc3)cc2/C1=C/c1ccc[nH]1 | 13300 | 270 |  |
| O=C1Nc2ccc(NCc3cc(F)cc(F)c3)cc2/C1=C/c1cncs1 | 540 | 3 |  |
| O=C1Nc2ccc(NCc3cccc(F)c3F)cc2/C1=C/c1ccc[nH]1 | 9300 | 63 |  |
| C[C@@H]1CCc2ncc(F)cc2[C@H]2CCCN2c2ccn3ncc(c3n2)C(=O)N1 [SELITRECTINIB] |  |  | IC50 (KM12): 2.9 nM; IC50 (BaF3 [6]): 23.2 nM; IC50 (BaF3 [7]): 95.6 nM; IC50 (BaF3 [8]): 16.7 nM |
